Results reported in article PMC5007854, “β-Nitrostyrenes as Potential Anti-leishmanial Agents” (Frontiers in Microbiology, 2016).
≈ marks a conversion by molar mass, not a printed value. Like-named read-outs stand apart in the source and are kept apart here.

Assays:
[1] = system: murine macrophage cell line RAW264.7; assay: Ex vivo cytotoxicity assay (MTT); assay type: cell-based; conditions: increasing concentrations, 48 h, 37°C (Figure 6)
Description: Murine macrophage cell line, RAW264.7 was grown at 37°C in medium RPMI-1640 (pH 7.4, Sigma-Aldrich, St. Louis, MO, USA) supplemented with 10% heat-inactivated FBS for 48 to 72 h in a humidified atmosphere of 5% CO2 and sub-cultured in fresh RPMI-1640 medium at an average density 2 × 10^5 cells/ml (Islamuddin et al., [2014b]).
To evaluate the adverse toxicity of test compounds (9, 12, 14, and 18) on mammalian cells, the murine macrophage cell line (RAW264.7) cultured in RPMI 1640 medium were exposed to increasing concentrations of test compounds (5–50 μM) at 37°C, 5% CO2 for 48 h. AmB as the reference drug, and macrophages without any treatment were taken as control. The percentage of cell viability was evaluated by MTT (3-{4, 5-dimethylthiazol-2-yl}-2, 5-diphenyltetrazoliumbromide) assay (Das et al., [2008]).

[2] = system: Aspergillus niger ATCC 16404; assay: Broth microdilution antifungal susceptibility (MIC/MFC); assay type: cell-based; conditions: for MIC / MFC: Aspergillus niger; for MIC: ATCC16404, 48 h
Outline: (§1)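 CLSI broth microdilution: Ca/Mg-supplemented Mueller-Hinton for bacteria (~5 × 10^5 CFU/mL, 24 h), MOPS-buffered RPMI 1640 pH 7.0 for fungi (Candida ~2.5 × 10^4, Aspergillus 0.4-5 × 10^4 CFU/mL, 48 h), 35°C, 1% DMSO, 64 to 0.12 μg/mL. MIC read visually; MBC/MFC by plating clear wells.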

[3] = system: Aspergillus fumigatus ATCC 16424; assay: as above; assay type: cell-based; conditions: for MIC / MFC: Aspergillus fumigatus; for MIC: ATCC16424, 48 h
Outline: as §1

[4] = system: Candida albicans ATCC 90028; assay: as above; assay type: cell-based; conditions: for MFC / MIC: Candida albicans; for MIC: ATCC90028, 48 h
Outline: as §1

[5] = system: Candida glabrata ATCC 90030; assay: as above; assay type: cell-based; conditions: for MFC / MIC: Nakaseomyces glabratus; for MIC: ATCC90030, 48 h
Outline: as §1

[6] = system: L. donovani promastigotes; assay: Anti-leishmanial screening at 100 μM, parasite viability by microscopy; assay type: cell-based, Leishmania donovani; conditions: 100 μM, 72 h, phase contrast microscope
Outline: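 Promastigotes (MHOM/IN/83/AG83) at 2 × 10^6 cells/mL in M199 with 10% FBS exposed to compound at 100 μM for 72 h at 22°C. Viability assessed microscopically; 0.2% DMSO solvent control, amphotericin B reference.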

[7] = broth microdilution, 35°C, 48 h, read-out: MIC, An ATCC 16404
[8] = ATCC16404, ≥99.9% reduction of original inoculum, read-out: MFC, An ATCC 16404
[9] = broth microdilution, 35°C, 48 h
[10] = broth microdilution, 35°C, 48 h, read-out: MIC, Af ATCC 16424
[11] = ATCC16424, ≥99.9% reduction of original inoculum, read-out: MFC, Af ATCC 16424
[12] = ATCC90028, ≥99.9% reduction of original inoculum, read-out: MFC, Ca ATCC 90028
[13] = ATCC90030, ≥99.9% reduction of original inoculum, read-out: MFC, Cg ATCC 90030
[14] = read-out: MIC, An ATCC 16404, broth microdilution, 35°C, 48 h
[15] = ATCC16404, read-out: MFC, An ATCC 16404
[16] = read-out: MIC, Af ATCC 16424, broth microdilution, 35°C, 48 h
[17] = ATCC16424, read-out: MFC, Af ATCC 16424
[18] = read-out: MIC, Ca ATCC 90028, broth microdilution, 35°C, 48 h
[19] = ATCC90028, read-out: MFC, Ca ATCC 90028
[20] = read-out: MIC, Cg ATCC 90030, broth microdilution, 35°C, 48 h
[21] = ATCC90030, read-out: MFC, Cg ATCC 90030

SMILES | Adverse toxicity on macrophage cell line RAW264.7 [1] | MIC [2, 7] [mg/L] | MFC [2, 8] [mg/L] | MIC, An ATCC 16404 [2, 9] [mg/L] | MIC [3, 10] [mg/L] | MFC [3, 11] [mg/L] | MIC, Af ATCC 16424 [3, 9] [mg/L] | MFC [4, 12] [mg/L] | MFC [5, 13] [mg/L] | Parasite viability after treatment [6] | MIC [2, 14] [mg/L] | MFC [2, 15] [mg/L] | MIC [3, 16] [mg/L] | MFC [3, 17] [mg/L] | MIC [4, 18] [mg/L] | MFC [4, 19] [mg/L] | MIC [5, 20] [mg/L] | MFC [5, 21] [mg/L] | further results
CC/C(=C\c1ccc(O)cc1)[N+](=O)[O-] [Compound 18, 4-((E)-2-nitrobut-1-enyl) phenol] | Absence of adverse toxicity | 2 to 4 (≈ 10.4 to 20.7 µM) | 8 (≈ 41.4 µM) | 4 (≈ 20.7 µM) | 4 to 8 (≈ 20.7 to 41.4 µM) | 16 (≈ 82.8 µM) | 8 (≈ 41.4 µM) | 16 (≈ 82.8 µM) | 8 (≈ 41.4 µM) | All the parasites were found to be dead | – | – | – | – | – | – | – | – | –
CC/C(=C\c1cccc([N+](=O)[O-])c1)[N+](=O)[O-] [Compound 12, 1-nitro-3-((E)-2-nitrobut-1-enyl) benzene] | Absence of adverse toxicity | – | – | – | – | – | – | – | – | All the parasites were found to be dead | 0.5 (≈ 2.25 µM) | 0.5 (≈ 2.25 µM) | 1 (≈ 4.5 µM) | 1 (≈ 4.5 µM) | 2 (≈ 9 µM) | 2 (≈ 9 µM) | 0.25 (≈ 1.13 µM) | 0.25 (≈ 1.13 µM) | –
CC/C(=C\c1ccc([N+](=O)[O-])cc1)[N+](=O)[O-] [Compound 9, 1-nitro-4-((E)-2-nitrobut-1-enyl) benzene] | Absence of adverse toxicity | – | – | 4 (≈ 18 µM) | – | – | 8 (≈ 36 µM) | – | – | All the parasites were found to be dead | 2 to 4 (≈ 9 to 18 µM) | 4 (≈ 18 µM) | 4 to 8 (≈ 18 to 36 µM) | 8 (≈ 36 µM) | 4 to 32 (≈ 18 to 144 µM) | 8 (≈ 36 µM) | 0.25 to 16 (≈ 1.13 to 72 µM) | 0.25 (≈ 1.13 µM) | MIC, Ca ATCC 90028 [4, 9]: 8 mg/L (≈ 36 µM); MIC, Cg ATCC 90030 [5, 9]: 0.25 mg/L (≈ 1.13 µM)
COc1ccc(/C=C(\C)[N+](=O)[O-])cc1 [Compound 14, 1-methoxy-4-((E)-2-nitroprop-1-enyl) benzene] | Absence of adverse toxicity | 4 (≈ 20.7 µM) | 4 (≈ 20.7 µM) | – | 8 (≈ 41.4 µM) | 8 (≈ 41.4 µM) | – | 32 (≈ 166 µM) | 8 (≈ 41.4 µM) | All the parasites were found to be dead | – | – | – | – | – | – | – | – | MIC ([4]; broth microdilution, 35°C, 48 h, read-out: MIC, Ca ATCC 90028): 32 mg/L (≈ 166 µM); MIC ([5]; broth microdilution, 35°C, 48 h, read-out: MIC, Cg ATCC 90030): 8 mg/L (≈ 41.4 µM)
